Data on 15 compounds can be found in patent publication US12110289B2, “Heterocyclic compounds, preparation methods and uses thereof” (InventisBio Co., Ltd., priority 2020, dated 2024).

The structures appear in SMILES notation.

One data set has as its system Lung cancer cell line NCI-H358 containing KRas G12C mutation. The data set is described as follows: Assay for cell proliferation (Cell-titer Glo, 5 days). The format is cell-based, human. The conditions noted are these: Homo sapiens, NCI-H358, 120 h, NCI-H358, 5 days, Cell-titer Glo; read-out: IC50 (nM), Inhibition of NCI-H358 Cell Proliferation. In short, it runs like this:
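NCI-H358 (KRas G12C) cells, 2000 per well, attached overnight at 37 °C, 5% CO2, then treated with compound for 5 days at 0.5% DMSO final. Proliferation measured by CellTiter-Glo luminescence after 10 min at RT.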
Regarding `C=CC(=O)N1CCN(c2nc(=O)n(-c3c(C4CC4)ncnc3C3CC3)c3nc(-c4ccccc4F)c(Cl)cc23)[C@@H](C)C1` [Compound 1], the IC50 came to 10 nM.

For `C=CC(=O)N1CCN(c2nc(=O)n(-c3c(C(C)C)nc(N)nc3C(C)C)c3nc(-c4ccccc4F)c(Cl)cc23)[C@@H](C)C1` [Compound 6], the IC50 stood at 4.9 nM.

Take `C=CC(=O)N1CCN(c2nc(=O)n(-c3c(C(C)C)nc(OC)nc3C(C)C)c3nc(-c4ccccc4F)c(Cl)cc23)[C@@H](C)C1` [Compound 8]: the IC50 came out at 11.2 nM.

In the case of `C=CC(=O)N1CCN(c2nc(=O)n(-c3c(C(C)C)nc(C)nc3C(C)C)c3nc(-c4ccccc4F)c(Cl)cc23)[C@@H](C)C1` [Compound 9], the IC50 worked out at 4.1 nM.

With `C=CC(=O)N1CCN(c2nc(=O)n(-c3c(C(C)C)nc(OCCN(C)C)nc3C(C)C)c3nc(-c4ccccc4F)c(Cl)cc23)[C@@H](C)C1` [Compound 13], the IC50 was 6.5 nM.

On to `C=CC(=O)N1CCN(c2nc(=O)n(-c3c(C(C)C)nc(N4CCNCC4)nc3C(C)C)c3nc(-c4ccccc4F)c(Cl)cc23)[C@@H](C)C1` [Compound 14], for which the IC50 turned out to be 8.8 nM.

As for `C=CC(=O)N1CCN(c2nc(=O)n(-c3c(C4CC4)nc(OCCN(C)C)nc3C3CC3)c3nc(-c4ccccc4F)c(Cl)cc23)[C@@H](C)C1` [Compound 20], the IC50 was 6.7 nM.

Turning to `C=CC(=O)N1CCN(c2nc(=O)n(-c3c(C(C)C)nc(N)nc3C(C)C)c3nc(-c4c(O)cccc4F)c(F)cc23)[C@@H](C)C1` [Compound 108], the IC50 stood at 46.5 nM.

Consider `C=CC(=O)N1C[C@H](C)N(c2nc(=O)n(-c3c(C(C)C)nc(N)nc3C(C)C)c3nc(-c4c(O)cccc4F)c(F)cc23)C[C@H]1C` [Compound 109], for which the IC50 turned out to be 12.3 nM.

As for `C=CC(=O)N1CCN(c2nc(=O)n(-c3c(C4CC4)nc(N)nc3C3CC3)c3nc(-c4c(O)cccc4F)c(Cl)cc23)[C@@H](C)C1` [Compound 110], the IC50 is 10.1 nM.

As to `C=CC(=O)N1C[C@H](C)N(c2nc(=O)n(-c3c(C4CC4)nc(N)nc3C3CC3)c3nc(-c4c(O)cccc4F)c(Cl)cc23)C[C@H]1C` [Compound 111], the IC50 worked out at 6.3 nM.

With `C=CC(=O)N1CCN(c2nc(=O)n(-c3c(C4CC4)nc(N)nc3C3CC3)c3nc(-c4c(O)cccc4F)c(F)cc23)[C@@H](C)C1` [Compound 112], the IC50 is 32.1 nM.

As to `C=CC(=O)N1C[C@H](C)N(c2nc(=O)n(-c3c(C4CC4)nc(N)nc3C3CC3)c3nc(-c4c(O)cccc4F)c(F)cc23)C[C@H]1C` [Compound 113], the IC50 came out at 48.5 nM.

Turning to `C=CC(=O)N1C[C@H](C)N(c2nc(=O)n(-c3c(C4CC4)nc(C)nc3C3CC3)c3nc(-c4cccc5[nH]nc(N)c45)c(F)cc23)C[C@H]1C` [Compound 114], the IC50 stood at 497 nM.

Consider `C=CC(=O)N1C[C@H](C)N(c2nc(=O)n(-c3c(C4CC4)nc(N4CCNCC4)nc3C3CC3)c3nc(-c4c(N)cccc4F)c(Cl)cc23)C[C@H]1C` [Compound 115], for which the IC50 came to 4.6 nM.

System in another data set: not listed separately
The experiment in a line: Human hepatocyte clearance study. In kind it is in vitro ADME. Particulars: human, pooled cryopreserved human hepatocytes (suspension); working cell density 0.5 × 10^6 viable cells/mL; read-out: Human In vitro Clint (μl/min/10^6 cells). Here is the method:
(§1) The in vitro human hepatocyte clearance of compounds described here was studied using pooled human hepatocytes purchased from BioreclamationIVT (Westbury, NY, Cat #X008001, Lot #TQJ). The assay was conducted according to manufacturer's instruction. Briefly, 10 mM stock solutions of test compounds and positive control (Verapamil) were prepared in 100% DMSO. Thawing media (50 mL) used in the study consists of 31 mL Williams E medium (GIBCO Cat #12551-032), 15 mL isotonic percoll (GE Healthcare Cat #17-0891-09), 500 uL 100× GlutaMax (GIBCO Cat #35050), 750 uL HEPES (GIBCO Cat #15630-080), 2.5 mL FBS (Corning Cat #35-076-CVR), 50 uL human insulin (GIBCO Cat #12585-014) and 5 uL dexamethasone (NICPBP). Incubation media is made of Williams E medium supplemented with 1× GlutaMax. Both thawing medium and incubation medium (serum-free) were placed in a 37° C. water bath for at least 15 minutes prior to use. Compound stock solutions were diluted to 100 μM by combining 198 μL of 50% acetonitrile/50% water and 2 μL of 10 mM stock solution. Verapamil was use as positive control in the assay. Vials of cryopreserved hepatocytes were removed from storage and thawed in a 37° C. water bath with gentle shaking. Contents of the vial were poured into the 50 mL thawing medium conical tube. Vials were centrifuged at 100 g for 10 minutes at room temperature. […] […] […] The boiled hepatocytes were used to prepare negative samples. Aliquots of 198 μL hepatocytes were dispensed into each well of a 96-well non-coated plate. The plate was placed in the incubator on an orbital shaker at 500 rpm for approximately 10 minutes. Aliquots of 2 μL of the 100 μM test compound or positive control were added into respective wells of the non-coated 96-well plate to start the reaction. This assay was performed in duplicate. The plate was incubated in the incubator on an orbital shaker at 500 rpm for the designated time points. Twenty-five microliter of contents were transferred and mixed with 6 volumes (150 μL) of cold acetonitrile with IS (200 nM imipramine, 200 nM labetalol and 200 nM diclofenac) to terminate the reaction at time points of 0, 15, 30, 60, 90 and 120 minutes. Samples were centrifuged at 3,220 g for 25 minutes and aliquots of 150 μL of the supernatants were used for LC-MS/MS analysis. For data analysis, all calculations were carried out using Microsoft Excel. Peak areas were determined from extracted ion chromatograms. The in vitro half-life (t1/2) of parent compound was determined by regression analysis of the percent parent disappearance vs. time curve. […] Scaling factors for in vivo intrinsic clearance prediction using human hepatocytes are listed as: liver weight (g liver/kg body weight): 25.7; hepatocyte concentration (10^6 cells/g liver): 99; scaling factor: 2544.3.
For the compound `C=CC(=O)N1CCN(c2nc(=O)n(-c3c(C4CC4)ncnc3C3CC3)c3nc(-c4ccccc4F)c(Cl)cc23)[C@@H](C)C1` [Compound 1], the hepatocyte CLint at 1 µM is 20.8 µL/min/1e6 cells.

Turning to `C=CC(=O)N1CCN(c2nc(=O)n(-c3c(C(C)C)nc(N)nc3C(C)C)c3nc(-c4ccccc4F)c(Cl)cc23)[C@@H](C)C1` [Compound 6], the hepatocyte CLint at 1 µM stood at 19.3 µL/min/1e6 cells.

As to `C=CC(=O)N1CCN(c2nc(=O)n(-c3c(C(C)C)nc(OC)nc3C(C)C)c3nc(-c4ccccc4F)c(Cl)cc23)[C@@H](C)C1` [Compound 8], the hepatocyte CLint at 1 µM was found to be 63.8 µL/min/1e6 cells.

Take `C=CC(=O)N1CCN(c2nc(=O)n(-c3c(C(C)C)nc(C)nc3C(C)C)c3nc(-c4ccccc4F)c(Cl)cc23)[C@@H](C)C1` [Compound 9]: the hepatocyte CLint at 1 µM was found to be 27.6 µL/min/1e6 cells.

Consider `C=CC(=O)N1CCN(c2nc(=O)n(-c3c(C(C)C)nc(N4CCNCC4)nc3C(C)C)c3nc(-c4ccccc4F)c(Cl)cc23)[C@@H](C)C1` [Compound 14], for which the hepatocyte CLint at 1 µM was 4.5 µL/min/1e6 cells.

Turning to `C=CC(=O)N1CCN(c2nc(=O)n(-c3c(C4CC4)nc(OCCN(C)C)nc3C3CC3)c3nc(-c4ccccc4F)c(Cl)cc23)[C@@H](C)C1` [Compound 20], the hepatocyte CLint at 1 µM stood at 5.1 µL/min/1e6 cells.

The data set is the same for the next values; noted with them: human, pooled cryopreserved human hepatocytes (suspension); working cell density 0.5 × 10^6 viable cells/mL; read-out: Human In vitro T1/2.
With `C=CC(=O)N1CCN(c2nc(=O)n(-c3c(C4CC4)ncnc3C3CC3)c3nc(-c4ccccc4F)c(Cl)cc23)[C@@H](C)C1` [Compound 1], the half-life at 1 µM was determined as 1.11 h.

In the case of `C=CC(=O)N1CCN(c2nc(=O)n(-c3c(C(C)C)nc(N)nc3C(C)C)c3nc(-c4ccccc4F)c(Cl)cc23)[C@@H](C)C1` [Compound 6], the half-life at 1 µM was 1.2 h.

Regarding `C=CC(=O)N1CCN(c2nc(=O)n(-c3c(C(C)C)nc(OC)nc3C(C)C)c3nc(-c4ccccc4F)c(Cl)cc23)[C@@H](C)C1` [Compound 8], the half-life at 1 µM was 0.362 h.

`C=CC(=O)N1CCN(c2nc(=O)n(-c3c(C(C)C)nc(C)nc3C(C)C)c3nc(-c4ccccc4F)c(Cl)cc23)[C@@H](C)C1` [Compound 9]: the half-life at 1 µM was 0.837 h.

Consider `C=CC(=O)N1CCN(c2nc(=O)n(-c3c(C(C)C)nc(N4CCNCC4)nc3C(C)C)c3nc(-c4ccccc4F)c(Cl)cc23)[C@@H](C)C1` [Compound 14], for which the half-life at 1 µM stood at 5.1 h.

Regarding `C=CC(=O)N1CCN(c2nc(=O)n(-c3c(C4CC4)nc(OCCN(C)C)nc3C3CC3)c3nc(-c4ccccc4F)c(Cl)cc23)[C@@H](C)C1` [Compound 20], the half-life at 1 µM amounted to 4.57 h.

The same data set, now with this note: human, pooled cryopreserved human hepatocytes (suspension); working cell density 0.5 × 10^6 viable cells/mL; scaling factor 2544.3; read-out: Human Scale-up Clint.
With `C=CC(=O)N1CCN(c2nc(=O)n(-c3c(C4CC4)ncnc3C3CC3)c3nc(-c4ccccc4F)c(Cl)cc23)[C@@H](C)C1` [Compound 1], the CLint scaled at 1 µM was found to be 53 mL/min/kg.

`C=CC(=O)N1CCN(c2nc(=O)n(-c3c(C(C)C)nc(N)nc3C(C)C)c3nc(-c4ccccc4F)c(Cl)cc23)[C@@H](C)C1` [Compound 6]: the CLint scaled at 1 µM was 49.2 mL/min/kg.

Consider `C=CC(=O)N1CCN(c2nc(=O)n(-c3c(C(C)C)nc(OC)nc3C(C)C)c3nc(-c4ccccc4F)c(Cl)cc23)[C@@H](C)C1` [Compound 8], for which the CLint scaled at 1 µM is 162 mL/min/kg.

Turning to `C=CC(=O)N1CCN(c2nc(=O)n(-c3c(C(C)C)nc(C)nc3C(C)C)c3nc(-c4ccccc4F)c(Cl)cc23)[C@@H](C)C1` [Compound 9], the CLint scaled at 1 µM was 70.2 mL/min/kg.

Regarding `C=CC(=O)N1CCN(c2nc(=O)n(-c3c(C(C)C)nc(N4CCNCC4)nc3C(C)C)c3nc(-c4ccccc4F)c(Cl)cc23)[C@@H](C)C1` [Compound 14], the CLint scaled at 1 µM was found to be 11.5 mL/min/kg.

On to `C=CC(=O)N1CCN(c2nc(=O)n(-c3c(C4CC4)nc(OCCN(C)C)nc3C3CC3)c3nc(-c4ccccc4F)c(Cl)cc23)[C@@H](C)C1` [Compound 20], for which the CLint scaled at 1 µM was determined as 12.9 mL/min/kg.

Another data set concerns pooled human hepatocytes. The data set is described as follows: Human hepatocyte clearance study. In kind it is in vitro ADME. Particulars: working cell density 0.5 × 10^6 viable cells/mL. Here is the method: as §1
Take `C=CC(=O)N1CCN(c2nc(=O)n(-c3c(C4CC4)ncnc3C3CC3)c3nc(-c4ccccc4F)c(Cl)cc23)[C@@H](C)C1` [Compound 1]: the “Human Hepatocyte Remaining Percentage @ 120 min (%)” value was 27.9%.

For `C=CC(=O)N1CCN(c2nc(=O)n(-c3c(C(C)C)nc(N)nc3C(C)C)c3nc(-c4ccccc4F)c(Cl)cc23)[C@@H](C)C1` [Compound 6], the “Human Hepatocyte Remaining Percentage @ 120 min (%)” value came to 33.4%.

`C=CC(=O)N1CCN(c2nc(=O)n(-c3c(C(C)C)nc(OC)nc3C(C)C)c3nc(-c4ccccc4F)c(Cl)cc23)[C@@H](C)C1` [Compound 8]: the “Human Hepatocyte Remaining Percentage @ 120 min (%)” value amounted to 2.1%.

As for `C=CC(=O)N1CCN(c2nc(=O)n(-c3c(C(C)C)nc(C)nc3C(C)C)c3nc(-c4ccccc4F)c(Cl)cc23)[C@@H](C)C1` [Compound 9], the “Human Hepatocyte Remaining Percentage @ 120 min (%)” value amounted to 18.6%.

Turning to `C=CC(=O)N1CCN(c2nc(=O)n(-c3c(C(C)C)nc(OCCN(C)C)nc3C(C)C)c3nc(-c4ccccc4F)c(Cl)cc23)[C@@H](C)C1` [Compound 13], the “Human Hepatocyte Remaining Percentage @ 120 min (%)” value came out at 103% and the “Human In vitro T1/2 (min)” value was “∞^b”.

On to `C=CC(=O)N1CCN(c2nc(=O)n(-c3c(C(C)C)nc(N4CCNCC4)nc3C(C)C)c3nc(-c4ccccc4F)c(Cl)cc23)[C@@H](C)C1` [Compound 14], for which the “Human Hepatocyte Remaining Percentage @ 120 min (%)” value is reported as 75.7%.

`C=CC(=O)N1CCN(c2nc(=O)n(-c3c(C4CC4)nc(OCCN(C)C)nc3C3CC3)c3nc(-c4ccccc4F)c(Cl)cc23)[C@@H](C)C1` [Compound 20]: the “Human Hepatocyte Remaining Percentage @ 120 min (%)” value was found to be 74.3%.
